Measurements published in PubChem BioAssay (NCI).
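Following 48 hours of exposure in 96-well plates, responses at five concentrations were used to interpolate endpoints linearly. GI50 marks 50% less growth. Definition used: TGI = concentration required for complete inhibition of growth.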

How the values were obtained:
Test in all cases: growth of human tumour cells (NCI), 48 h
[1] = system: A549 NSCLC
[2] = system: EKVX NSCLC
[3] = system: IGROV1 ovarian
[4] = system: KM12 colon
[5] = system: M14 melanoma
[6] = system: MOLT-4 leukemia
[7] = system: NCI/ADR-RES ovarian
[8] = system: RPMI-8226 leukemia
[9] = system: UACC-257 melanoma
[10] = system: UO-31 renal

SMILES	TGI [1]	TGI [2]	TGI [3]	TGI [4]	TGI [5]	TGI [6]	TGI [7]	TGI [8]	TGI [9]	TGI [10]	GI50 [1]	GI50 [2]	GI50 [3]	GI50 [4]	GI50 [5]	GI50 [6]	GI50 [7]	GI50 [8]	GI50 [9]	GI50 [10]
Cc1c(C(=O)O)n2cnnc2c2ccccc12	> 100 µM	> 100 µM	> 100 µM	> 100 µM	> 100 µM	> 100 µM	> 100 µM	> 100 µM	> 100 µM	> 100 µM	–	–	–	–	–	–	–	–	–	–
CCCCCCCCCCCCCC(=O)N(CCCCCCCCC)CC(O)C(O)C(OC1OC(CO)C(O)C(O)C1O)C(O)CO (stereo unspecified)	50.5 µM	34.5 µM	38.1 µM	37.1 µM	40.8 µM	44.9 µM	37.7 µM	52.1 µM	32.1 µM	34.5 µM	–	–	–	–	–	–	–	–	–	–
CCOC(=O)[C@@H]1ON2OC(OC3CCCC3(c3ccccc3)c3ccccc3)C(OC(C)=O)[C@H]3OC(=O)[C@@H]1C32 (stereo partly specified)	> 100 µM	> 100 µM	> 100 µM	> 100 µM	> 100 µM	> 100 µM	> 100 µM	> 100 µM	> 100 µM	> 100 µM	–	–	–	–	–	–	–	–	–	–
C=C(c1ccccc1)c1ccccc1-c1cc(-c2ccccc2)cc(-c2ccccc2)n1	> 100 µM	> 100 µM	> 100 µM	> 100 µM	> 100 µM	> 100 µM	> 100 µM	> 100 µM	> 100 µM	> 100 µM	–	–	–	–	–	–	–	–	–	–
COc1ccc(C(=O)/C=C/c2cc(O)c(O)cc2F)c(OC)c1	> 75.4 µM	49 µM	> 88.2 µM	> 79.9 µM	23.9 µM	45.1 µM	> 68.7 µM	36.4 µM	22.7 µM	30.8 µM	–	–	–	–	–	–	–	–	–	–
CN1CCN(C2=CC(=O)c3c(O)ccc(O)c3C2=O)CC1	3.5 µM	3.26 µM	3.06 µM	3.59 µM	1.94 µM	4.75 µM	> 10 µM	6.25 µM	0.467 µM	2.92 µM	–	–	–	–	–	–	–	–	–	–
CC(=O)c1c2n(n(-c3ccccc3)c1=O)C(=O)c1nccnc1-2	> 100 µM	> 100 µM	> 100 µM	> 100 µM	> 100 µM	> 100 µM	> 100 µM	> 100 µM	> 100 µM	> 100 µM	–	–	–	–	–	–	–	–	–	–
[N-]=[N+]=Nc1c([N+](=O)[O-])c(=O)n2c3c(cccc13)CCC2	> 84.5 µM	41.8 µM	41 µM	34.8 µM	26.2 µM	5.58 µM	45.5 µM	11.5 µM	21.5 µM	28.4 µM	–	–	–	–	–	–	–	–	–	–
CC(C)(C)[Si](C)(C)OCC1OC(n2cnc3c(=O)[nH]c(N)nc32)C(O[Si](C)(C)C(C)(C)C)C1O[Si](C)(C)C(C)(C)C (stereo unspecified)	7.61 µM	> 46.6 µM	3.91 µM	3.19 µM	2.89 µM	3.45 µM	> 100 µM	3.46 µM	9.4 µM	15.3 µM	–	–	–	–	–	–	–	–	–	–
NC(N)=NCCCC(NC(=O)OCCCCn1ccc(N)nc1=O)C(=O)O (stereo unspecified)	> 100 µM	> 100 µM	> 100 µM	> 100 µM	> 100 µM	> 100 µM	> 100 µM	> 100 µM	> 100 µM	> 100 µM	–	–	–	–	–	–	–	–	–	–
O=c1[nH]c(=S)c2cc3c(=S)[nH]c(=O)n(CCO)c3nc2n1CCO	> 100 µM	> 100 µM	> 100 µM	> 100 µM	> 100 µM	> 100 µM	> 100 µM	> 100 µM	> 100 µM	> 100 µM	–	–	–	–	–	–	–	–	–	–
COc1cc(Br)c(CC2C3=C(CCN2C(=O)C2CCC2)CC(=O)CC3)cc1O (stereo unspecified)	> 100 µM	> 100 µM	> 100 µM	73.3 µM	> 100 µM	> 100 µM	> 100 µM	> 100 µM	> 100 µM	> 100 µM	–	–	–	–	–	–	–	–	–	–
COc1ccc(-c2nn(-c3ccc(NC(=O)Nc4ccc(Cl)c(C(F)(F)F)c4)cc3)cc2-c2ccncc2)cc1Cl	> 100 µM	14.4 µM	63.1 µM	4.34 µM	3.13 µM	6.75 µM	> 100 µM	1.92 µM	4.91 µM	3.05 µM	1.2 µM	1.83 µM	2.16 µM	1.22 µM	1.49 µM	1.7 µM	2.4 µM	0.388 µM	1.94 µM	1.1 µM
C=CCC(C(=O)Nc1cccc2[nH]cnc12)C(=O)OCC (stereo unspecified)	> 100 µM	> 100 µM	> 100 µM	> 100 µM	> 100 µM	> 100 µM	> 100 µM	> 100 µM	> 100 µM	> 100 µM	–	–	–	–	–	–	–	–	–	–
CC(=O)/C(=C/N1CCNC1=S)C(=O)Nc1ccccc1C	> 100 µM	> 100 µM	> 100 µM	> 100 µM	> 100 µM	> 100 µM	> 100 µM	> 100 µM	> 100 µM	> 100 µM	–	–	–	–	–	–	–	–	–	–
C[C@H]1COC2=C1C(=O)C(=O)c1c2ccc2c1CCCC2(C)C	4.55 µM	71.7 µM	29.2 µM	37 µM	3.15 µM	> 56.2 µM	24 µM	71.2 µM	6.46 µM	14.3 µM	–	–	–	–	–	–	–	–	–	–
Brc1ccc2c(-c3csc(-c4c[nH]c5ccccc45)n3)c[nH]c2c1	29.2 µM	36.1 µM	26.6 µM	34.7 µM	27.3 µM	36.3 µM	35.9 µM	46.6 µM	50.7 µM	27.6 µM	–	–	–	–	–	19.9 µM	–	–	–	–
CC1(C)CCc2c(c(N=Nc3ccc(F)cc3)c3ccccc3c2O)O1	32.2 µM	97 µM	> 100 µM	> 100 µM	39.9 µM	> 100 µM	> 100 µM	> 100 µM	41.1 µM	> 100 µM	–	–	–	–	–	–	–	–	–	–

SMILES	TGI [1]	TGI [2]	TGI [3]	TGI [4]	TGI [5]	TGI [6]	TGI [7]	TGI [8]	TGI [9]	TGI [10]	GI50 [1]	GI50 [2]	GI50 [3]	GI50 [4]	GI50 [5]	GI50 [6]	GI50 [7]	GI50 [8]	GI50 [9]	GI50 [10]
Cn1c(O)c(C=Nc2ccccc2Cl)c(=O)n(C)c1=O	> 100 µM	> 100 µM	> 100 µM	> 100 µM	48.9 µM	61.5 µM	> 100 µM	51.7 µM	> 100 µM	> 100 µM	–	–	–	–	–	–	–	–	–	–
Cc1sc2nc3n(c(=O)c2c1C)N=CN(c1ccc(F)cc1)C3	> 100 µM	> 100 µM	> 100 µM	> 100 µM	> 100 µM	> 100 µM	> 100 µM	> 100 µM	> 100 µM	> 100 µM	–	–	–	–	–	–	–	–	–	–
S=c1[nH]c2ccc(I)cc2c(=S)n1Cc1ccccc1	> 100 µM	23.7 µM	27.6 µM	50.7 µM	31.6 µM	13.4 µM	25.5 µM	12.1 µM	7.34 µM	24.8 µM	–	–	–	–	–	–	–	–	–	–
CCN1CCC(O)(/C=C/c2ccc(OC)cc2)C(C(=O)/C=C/c2ccc(OC)cc2)C1 (stereo unspecified)	34 µM	26.4 µM	29.8 µM	19.9 µM	34.1 µM	12.4 µM	21.9 µM	44.8 µM	30.9 µM	21.5 µM	–	–	–	–	–	–	–	–	–	–
COc1cc(CS(=O)c2ccc(O)cc2)cc(OC)c1OC (stereo unspecified)	> 100 µM	> 100 µM	> 100 µM	> 100 µM	> 100 µM	> 100 µM	> 100 µM	> 100 µM	> 100 µM	> 100 µM	–	–	–	–	–	–	–	–	–	–
O=C(O)C(=O)/C=C(\O)c1ccc(Br)cc1	> 100 µM	82.1 µM	> 100 µM	> 100 µM	> 100 µM	> 100 µM	> 100 µM	> 100 µM	> 100 µM	> 100 µM	–	–	–	–	–	–	–	–	–	–
CCOC(=O)N1CCC(=C2c3ccc(Cl)cc3CCc3cccnc32)CC1	> 100 µM	28.1 µM	8.22 µM	24.3 µM	29.1 µM	33.3 µM	23.6 µM	32.9 µM	29.6 µM	4.49 µM	–	–	–	–	–	–	–	–	–	–
C=C1CN(C2=NCCO2)C1	> 100 µM	> 100 µM	> 100 µM	> 100 µM	> 100 µM	> 100 µM	> 100 µM	> 100 µM	> 100 µM	> 100 µM	–	–	–	–	–	–	–	–	–	–
CN(C)CCCNCc1cccc2ccccc12	> 100 µM	> 100 µM	> 100 µM	> 100 µM	> 100 µM	> 100 µM	> 100 µM	> 100 µM	> 100 µM	> 100 µM	–	–	–	–	–	–	–	–	–	–
C=C1C(=O)OC2CC3(C)OC3CC/C(C)=C/C(OC(C)=O)C12 (stereo unspecified)	33.7 µM	32.7 µM	35.3 µM	39.9 µM	9.86 µM	13.9 µM	30.1 µM	14.3 µM	22.6 µM	26.5 µM	–	–	–	–	–	–	–	–	–	–
Cc1ccc([N+](=O)[O-])c2c(NCC(O)CO)ccnc12 (stereo unspecified)	> 100 µM	> 100 µM	> 100 µM	> 100 µM	> 100 µM	> 100 µM	> 100 µM	> 100 µM	> 100 µM	> 100 µM	–	–	–	–	–	–	–	–	–	–
Oc1cc(Br)cc2cc(Cl)cnc12	> 56.1 µM	45.2 µM	27.1 µM	> 42.7 µM	10.4 µM	7.49 µM	10 µM	26 µM	> 100 µM	17.4 µM	–	–	–	–	–	–	–	–	–	–
CC(C)(C)OC(=O)NCC(=O)N1CCN(C(=O)CNC(=O)OC(C)(C)C)CC1	> 100 µM	> 100 µM	> 100 µM	> 100 µM	> 100 µM	> 100 µM	> 100 µM	> 100 µM	> 100 µM	> 100 µM	–	–	–	–	–	–	–	–	–	–
Fc1cc(-c2cc(-c3ccc4c(c3)OCO4)n[nH]2)c(Cl)cc1Cl	7.86 µM	5.17 µM	7.5 µM	> 22.7 µM	18.3 µM	> 50.7 µM	12.4 µM	> 46.4 µM	27.9 µM	6.46 µM	–	–	–	–	–	–	–	–	–	–
C[N+](C)(CCNC(=O)c1cccc2cc3ccccc3nc12)Cc1ccc([N+](=O)[O-])s1	> 25 µM	> 25 µM	> 25 µM	> 25 µM	> 25 µM	> 25 µM	> 25 µM	> 25 µM	> 25 µM	> 25 µM	–	–	–	–	–	–	–	–	–	–
CCC(NC1=NCCO1)c1cccs1 (stereo unspecified)	28.1 µM	31.1 µM	39.3 µM	36 µM	33.3 µM	> 100 µM	> 100 µM	> 100 µM	35.8 µM	32.7 µM	–	–	–	–	–	–	–	–	–	–
O=C(O)CCC(NC(=O)c1ccc(Nc2nc3cc(C(F)(F)F)ccc3nc2C(=O)O)cc1)C(=O)O (stereo unspecified)	> 100 µM	> 100 µM	> 100 µM	> 100 µM	> 100 µM	> 100 µM	> 100 µM	> 100 µM	> 100 µM	> 100 µM	–	–	–	–	–	–	–	–	–	–
c1ccc(CN2CCN3CCN(CC2)CCN(Cc2ccccc2)CC3)cc1	> 56.1 µM	32.6 µM	22.1 µM	14.6 µM	19.6 µM	> 56.7 µM	> 100 µM	9.83 µM	8.8 µM	> 81.5 µM	–	–	–	–	–	–	–	–	–	–
